Test results as given in paper PMC9525679, “Inositol hexakisphosphate is required for Integrator function” (Nature Communications, 2022).

T1: Drosophila IntS9, subunit of the Integrator cleavage module (Drosophila (D. melanogaster), UniProt Q95TS5 1-654)
T1 construct: Integrator complex subunit 9 (IntS9), Drosophila; Cloned into the pFL acceptor vector together with IntS11; no tag is stated; also called Integrator subunit 9
T1 sequence: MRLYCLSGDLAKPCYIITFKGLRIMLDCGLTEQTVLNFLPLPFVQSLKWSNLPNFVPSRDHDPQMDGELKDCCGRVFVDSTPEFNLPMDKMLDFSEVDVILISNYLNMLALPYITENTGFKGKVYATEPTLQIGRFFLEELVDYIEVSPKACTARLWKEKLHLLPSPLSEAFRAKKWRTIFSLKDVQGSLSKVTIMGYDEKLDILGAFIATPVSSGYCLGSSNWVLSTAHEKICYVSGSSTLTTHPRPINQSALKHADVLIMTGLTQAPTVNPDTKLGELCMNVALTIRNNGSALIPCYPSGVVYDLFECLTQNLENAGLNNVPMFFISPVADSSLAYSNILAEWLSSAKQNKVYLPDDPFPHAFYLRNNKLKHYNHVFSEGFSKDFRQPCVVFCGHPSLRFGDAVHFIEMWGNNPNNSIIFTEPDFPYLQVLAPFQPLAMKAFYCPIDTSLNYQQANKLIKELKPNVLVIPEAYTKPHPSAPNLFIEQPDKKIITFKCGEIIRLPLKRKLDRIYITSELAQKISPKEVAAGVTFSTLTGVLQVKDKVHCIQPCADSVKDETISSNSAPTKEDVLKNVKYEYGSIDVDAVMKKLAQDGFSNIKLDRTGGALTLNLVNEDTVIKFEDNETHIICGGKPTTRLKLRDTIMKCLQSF

T2: Drosophila IntS4 (N-terminal 6xHis-tagged), subunit of the Integrator cleavage module (Drosophila (D. melanogaster), UniProt Q9W3E1 1-1022)
T2 construct: Integrator complex subunit 4 (IntS4), Drosophila; Residues beyond 570 (CTD) were not modelled in the structure; also called Integrator subunit 4
T2 sequence: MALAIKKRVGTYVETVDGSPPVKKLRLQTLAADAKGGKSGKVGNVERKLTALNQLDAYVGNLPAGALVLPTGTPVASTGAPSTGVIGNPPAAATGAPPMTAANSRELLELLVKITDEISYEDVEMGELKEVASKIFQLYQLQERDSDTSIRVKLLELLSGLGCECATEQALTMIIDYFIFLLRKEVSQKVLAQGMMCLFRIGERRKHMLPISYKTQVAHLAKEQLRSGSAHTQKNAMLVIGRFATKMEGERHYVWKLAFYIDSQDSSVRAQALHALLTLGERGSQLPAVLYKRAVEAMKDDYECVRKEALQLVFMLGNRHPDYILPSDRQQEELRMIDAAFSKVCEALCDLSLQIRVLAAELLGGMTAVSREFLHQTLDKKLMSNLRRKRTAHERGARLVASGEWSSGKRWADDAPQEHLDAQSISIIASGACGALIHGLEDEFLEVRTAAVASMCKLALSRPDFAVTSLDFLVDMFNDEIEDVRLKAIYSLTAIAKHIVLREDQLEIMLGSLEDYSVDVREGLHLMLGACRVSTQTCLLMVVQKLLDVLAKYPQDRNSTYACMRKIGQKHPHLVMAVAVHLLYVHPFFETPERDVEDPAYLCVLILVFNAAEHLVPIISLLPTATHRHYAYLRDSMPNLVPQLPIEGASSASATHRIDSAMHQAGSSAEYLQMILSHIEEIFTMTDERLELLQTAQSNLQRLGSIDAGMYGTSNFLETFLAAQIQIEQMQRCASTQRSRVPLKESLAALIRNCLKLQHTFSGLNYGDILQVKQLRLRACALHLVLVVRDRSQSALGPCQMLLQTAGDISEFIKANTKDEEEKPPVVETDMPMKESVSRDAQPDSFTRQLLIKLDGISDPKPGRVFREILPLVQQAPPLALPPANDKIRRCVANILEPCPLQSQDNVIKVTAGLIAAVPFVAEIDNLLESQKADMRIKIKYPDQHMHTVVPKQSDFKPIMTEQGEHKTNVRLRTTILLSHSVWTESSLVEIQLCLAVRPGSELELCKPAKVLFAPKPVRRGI

B1: Drosophila IntS11 K462E (in the K462E mutant Drosophila ICM) (enzyme, Drosophila (D. melanogaster))
chain: MPDIKITPLGAGQDVGRSCLLLSMGGKNIMLDCGMHMGYNDERRFPDFSYIVPEGPITSHIDCVIISHFHLDHCGALPYMSEIVGYTGPIYMTHPTKAIAPILLEDMRKVAVERKGESNFFTTQMIKDCMKKVIPVTLHQSMMVDTDLEIKAYYAGHVLGAAMFWIKVGSQSVVYTGDYNMTPDRHLGAAWIDKCRPDLLISESTYATTIRDSKRCRERDFLKKVHECVAKGGKVLIPVFALGRAQELCILLETYWERMNLKYPIYFALGLTEKANTYYKMFITWTNQKIRKTFVHRNMFDFKHIKPFDKAYIDNPGAMVVFATPGMLHAGLSLQIFKKWAPNENNMVIMPGYCVQGTVGNKILGGAKKVEFENRQVVEVKMAVEYMSFSAHADAKGIMQLIQNCEPKNVMLVHGEAGKMKFLRSKIKDEFNLETYMPANGETCVISTPVKIPVDASVSLLEAEARSYNAQPPDPKRRRLIHGVLVMKDNRIMLQNLTDALKEIGINRHVMRFTSKVKMDDSGPVIRTSERLKTLLEEKLAGWTVTMQENGSIAIESVEVKVEEDEKDPKQKNILISWTNQDEDIGAYILNVLQNMC
notes: Integrator complex subunit 11 (IntS11), Drosophila, with K462E; also called K462E mutant of Drosophila ICM; source: insect cells, purified as ICM sample

Columns and labels:
[1] = biological target: T3, human INTS4-INTS9-INTS11 complex (human ICM) (Homo sapiens, UniProt Q5TA45+Q96HW7+Q9NV88, Q9NV88:K510E/Q9NV88:R511E); test: LC-MS/MS of co-purified ligand; type: binding; conditions: ligand co-purified from insect cells, none added; site mutant, gel filtration profile comparable to wild type
T3 construct: three-subunit complex purified from insect cell expression
T3 sequence (Q96HW7 whole entry): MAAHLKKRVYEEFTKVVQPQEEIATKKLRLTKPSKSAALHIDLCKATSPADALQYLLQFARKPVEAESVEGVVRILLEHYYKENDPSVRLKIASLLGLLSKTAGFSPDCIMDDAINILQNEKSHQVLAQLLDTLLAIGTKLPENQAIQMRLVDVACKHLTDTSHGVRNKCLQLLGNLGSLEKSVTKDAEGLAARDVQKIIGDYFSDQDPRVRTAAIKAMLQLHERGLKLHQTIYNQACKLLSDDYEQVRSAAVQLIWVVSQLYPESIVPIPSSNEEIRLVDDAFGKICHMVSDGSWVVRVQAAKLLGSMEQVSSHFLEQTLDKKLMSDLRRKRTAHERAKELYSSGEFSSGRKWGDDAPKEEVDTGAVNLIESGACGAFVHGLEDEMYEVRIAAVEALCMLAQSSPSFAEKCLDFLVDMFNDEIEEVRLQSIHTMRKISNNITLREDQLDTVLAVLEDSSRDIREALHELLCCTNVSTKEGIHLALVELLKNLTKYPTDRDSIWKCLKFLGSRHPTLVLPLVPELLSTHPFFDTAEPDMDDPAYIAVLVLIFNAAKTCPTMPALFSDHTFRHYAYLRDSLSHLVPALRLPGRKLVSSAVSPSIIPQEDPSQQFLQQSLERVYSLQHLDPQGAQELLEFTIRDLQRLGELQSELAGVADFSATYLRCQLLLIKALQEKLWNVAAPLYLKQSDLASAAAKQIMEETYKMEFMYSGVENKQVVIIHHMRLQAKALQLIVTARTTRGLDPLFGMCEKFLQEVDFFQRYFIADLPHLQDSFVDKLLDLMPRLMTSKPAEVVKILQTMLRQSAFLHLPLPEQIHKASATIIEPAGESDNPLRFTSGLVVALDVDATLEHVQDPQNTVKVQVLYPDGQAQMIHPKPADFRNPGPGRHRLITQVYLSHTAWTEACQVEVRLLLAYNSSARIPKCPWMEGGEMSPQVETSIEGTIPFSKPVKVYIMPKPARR
T3 sequence (Q9NV88 whole entry K510E/R511E): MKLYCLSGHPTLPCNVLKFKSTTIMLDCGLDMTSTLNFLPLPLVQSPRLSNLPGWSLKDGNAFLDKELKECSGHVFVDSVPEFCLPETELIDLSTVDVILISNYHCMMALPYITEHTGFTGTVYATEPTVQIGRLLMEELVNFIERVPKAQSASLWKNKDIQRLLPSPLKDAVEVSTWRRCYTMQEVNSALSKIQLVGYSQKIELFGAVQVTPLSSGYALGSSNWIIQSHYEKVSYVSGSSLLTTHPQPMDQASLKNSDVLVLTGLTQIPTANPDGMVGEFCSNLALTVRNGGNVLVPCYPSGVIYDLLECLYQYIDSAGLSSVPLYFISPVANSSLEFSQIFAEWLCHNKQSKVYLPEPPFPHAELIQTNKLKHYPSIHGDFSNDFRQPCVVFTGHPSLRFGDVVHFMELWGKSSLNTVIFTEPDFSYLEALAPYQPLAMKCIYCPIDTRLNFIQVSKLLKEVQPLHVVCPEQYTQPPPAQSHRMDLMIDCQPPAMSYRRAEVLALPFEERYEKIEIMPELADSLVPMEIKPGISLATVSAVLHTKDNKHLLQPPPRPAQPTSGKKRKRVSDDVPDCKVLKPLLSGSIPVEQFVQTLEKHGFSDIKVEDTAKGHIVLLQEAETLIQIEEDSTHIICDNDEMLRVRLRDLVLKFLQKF
T3 sequence (Q5TA45 whole entry): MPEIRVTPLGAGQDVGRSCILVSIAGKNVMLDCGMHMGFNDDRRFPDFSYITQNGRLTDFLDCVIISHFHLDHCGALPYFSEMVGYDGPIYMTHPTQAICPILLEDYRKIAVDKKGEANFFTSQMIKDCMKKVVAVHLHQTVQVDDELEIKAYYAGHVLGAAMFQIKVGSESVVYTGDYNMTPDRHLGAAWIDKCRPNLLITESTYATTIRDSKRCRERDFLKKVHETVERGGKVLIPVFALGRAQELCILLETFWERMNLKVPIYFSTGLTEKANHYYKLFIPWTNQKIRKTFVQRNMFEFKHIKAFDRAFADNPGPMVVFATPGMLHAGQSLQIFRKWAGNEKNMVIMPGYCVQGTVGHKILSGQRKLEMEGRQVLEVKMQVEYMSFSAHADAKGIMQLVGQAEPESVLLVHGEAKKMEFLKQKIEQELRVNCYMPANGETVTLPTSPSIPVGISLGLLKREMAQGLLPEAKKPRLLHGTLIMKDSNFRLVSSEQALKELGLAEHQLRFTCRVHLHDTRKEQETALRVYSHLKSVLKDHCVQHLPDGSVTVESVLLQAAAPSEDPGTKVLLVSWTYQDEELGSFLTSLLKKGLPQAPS

[2] = biological target: T4, human INTS4-INTS9-INTS11 complex (human ICM) (Homo sapiens, UniProt Q5TA45+Q96HW7+Q9NV88); test: LC-MS/MS of co-purified ligand; IP6 also fitted into published human ICM map (EMDB […]); type: binding; conditions: ligand co-purified from insect cells, none added
T4 construct: three-subunit complex purified from insect cell expression
T4 sequence (Q96HW7 whole entry): as the sequence (Q96HW7 whole entry) above
T4 sequence (Q9NV88 whole entry): as the sequence (Q9NV88 whole entry K510E/R511E) above, with E510K, E511R counted along it
T4 sequence (Q5TA45 whole entry): as the sequence (Q5TA45 whole entry) above

[3] = biological target: T5, human INTS4-INTS9-INTS11 complex (human ICM) (Homo sapiens, UniProt Q5TA45+Q96HW7+Q9NV88, Q5TA45:K462E); test: LC-MS/MS of co-purified ligand; type: binding; conditions: ligand co-purified from insect cells, none added; site mutant, gel filtration profile comparable to wild type
T5 construct: three-subunit complex purified from insect cell expression
T5 sequence (Q96HW7 whole entry): as the sequence (Q96HW7 whole entry) above
T5 sequence (Q9NV88 whole entry): as the sequence (Q9NV88 whole entry K510E/R511E) above, with E510K, E511R counted along it
T5 sequence (Q5TA45 whole entry K462E): as the sequence (Q5TA45 whole entry) above, with K462E counted along it

[4] = biological target: T6, Drosophila IntS4-IntS9-IntS11 complex (Drosophila ICM, Integrator cleavage module) (Drosophila melanogaster, UniProt Q95TS5+Q9VAH9+Q9W3E1, Q9VAH9:K462E); test: LC-MS/MS of co-purified ligand; type: binding; conditions: ligand co-purified from insect cells, none added; site mutant, gel filtration profile comparable to wild type
T6 construct: IntS4 (N-terminal 6xHis), IntS9 and IntS11 co-expressed in Tni insect cells; IP6 co-purified from the host; free IntS9 N-terminus contacts IP6

[5] = biological target: T7, Drosophila IntS4-IntS9-IntS11 complex (Drosophila ICM, Integrator cleavage module) (Drosophila melanogaster, UniProt Q95TS5+Q9VAH9+Q9W3E1); test: cryo-EM structure ([…] Å); LC-MS/MS of co-purified ligand; type: binding; conditions: ligand co-purified from insect cells, none added; site at interface of IntS4, IntS9 and IntS11, 55 Å from the IntS11 active site
T7 construct: IntS4 (N-terminal 6xHis), IntS9 and IntS11 co-expressed in Tni insect cells; IP6 co-purified from the host; free IntS9 N-terminus contacts IP6
T7 sequence (Q9VAH9 whole entry, one chain of several): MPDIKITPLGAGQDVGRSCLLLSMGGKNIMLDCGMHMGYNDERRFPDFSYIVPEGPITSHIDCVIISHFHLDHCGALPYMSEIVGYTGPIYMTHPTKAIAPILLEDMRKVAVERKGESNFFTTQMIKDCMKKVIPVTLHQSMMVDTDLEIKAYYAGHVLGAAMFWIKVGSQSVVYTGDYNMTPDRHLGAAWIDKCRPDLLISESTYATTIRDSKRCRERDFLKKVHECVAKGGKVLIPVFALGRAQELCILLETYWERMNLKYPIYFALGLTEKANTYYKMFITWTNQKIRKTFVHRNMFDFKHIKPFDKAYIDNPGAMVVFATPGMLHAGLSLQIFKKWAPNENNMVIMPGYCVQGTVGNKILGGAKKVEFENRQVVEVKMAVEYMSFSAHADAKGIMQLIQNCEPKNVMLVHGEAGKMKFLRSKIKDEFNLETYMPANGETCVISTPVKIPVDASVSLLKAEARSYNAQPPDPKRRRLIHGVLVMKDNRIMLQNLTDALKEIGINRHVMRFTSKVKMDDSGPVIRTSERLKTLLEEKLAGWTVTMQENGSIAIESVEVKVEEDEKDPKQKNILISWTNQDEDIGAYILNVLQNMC

[6] = biological target: T1, Drosophila IntS9, subunit of the …; test: SEC; gel filtration (Hiload 16/60 Superdex 200) of wild-type and K462E mutant Drosophila ICM co-expressed in insect cells, after nickel affinity; SDS gel of the complex; conditions: both partners purified
[7] = biological target: T2, Drosophila IntS4 (N-terminal …); test: as above; conditions: both partners purified

Molecule | IP6 detection [1] | LC-MS/MS of co-purified ligand; IP6 also fitted into published human ICM map (EM) [2] | IP6 detection [3] | IP6 detection [4] | cryo-EM structure (2.74 Å); LC-MS/MS of co-purified ligand [5] | binding result [6] | binding result [7]
O=P(O)(O)O[C@H]1[C@H](OP(=O)(O)O)[C@@H](OP(=O)(O)O)[C@H](OP(=O)(O)O)[C@@H](OP(=O)(O)O)[C@H]1OP(=O)(O)O [inositol hexakisphosphate] | human ICM sample containing the K510E/R511E double mutation in IntS9 | confirm by mass spectrometry the binding of IP6 to wild-type human or Drosophila ICM samples | we failed to detect IP6 in our mass spectrometry experiments on them | we failed to detect IP6 in our mass spectrometry experiments on them | The structure of Drosophila ICM unexpectedly revealed the presence of an inositol hexakisphosphate (IP6) molecule | – | –
B1 | – | – | – | – | – | binds | binds
